Measurements: PMC12372887, “Mechanism and cellular actions of the potent AMPK inhibitor BAY-3827” (Science Advances, 2025)

Key:
Experiment in all cases: Kinase panel (140 human kinases)
Format in all cases: biochemical
ASK1 = ASK1 (Homo sapiens, UniProt Q99683)
Outline: (§1)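 Single-point profiling at 0.1 μM; BAY-3827 also at 1 μM. ^33P-ATP radiometric filter-binding format, duplicates. ATP 5/20/50 μM (≤ Km for each enzyme). Readout: % residual activity, mean ± SD.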

Aurora A = Aurora A (Homo sapiens, UniProt O14965)
Outline: as §1

BRSK2 = target: T1, BRSK2 (Homo sapiens, UniProt Q8IWQ3)
T1 sequence (Q8IWQ3 1-736): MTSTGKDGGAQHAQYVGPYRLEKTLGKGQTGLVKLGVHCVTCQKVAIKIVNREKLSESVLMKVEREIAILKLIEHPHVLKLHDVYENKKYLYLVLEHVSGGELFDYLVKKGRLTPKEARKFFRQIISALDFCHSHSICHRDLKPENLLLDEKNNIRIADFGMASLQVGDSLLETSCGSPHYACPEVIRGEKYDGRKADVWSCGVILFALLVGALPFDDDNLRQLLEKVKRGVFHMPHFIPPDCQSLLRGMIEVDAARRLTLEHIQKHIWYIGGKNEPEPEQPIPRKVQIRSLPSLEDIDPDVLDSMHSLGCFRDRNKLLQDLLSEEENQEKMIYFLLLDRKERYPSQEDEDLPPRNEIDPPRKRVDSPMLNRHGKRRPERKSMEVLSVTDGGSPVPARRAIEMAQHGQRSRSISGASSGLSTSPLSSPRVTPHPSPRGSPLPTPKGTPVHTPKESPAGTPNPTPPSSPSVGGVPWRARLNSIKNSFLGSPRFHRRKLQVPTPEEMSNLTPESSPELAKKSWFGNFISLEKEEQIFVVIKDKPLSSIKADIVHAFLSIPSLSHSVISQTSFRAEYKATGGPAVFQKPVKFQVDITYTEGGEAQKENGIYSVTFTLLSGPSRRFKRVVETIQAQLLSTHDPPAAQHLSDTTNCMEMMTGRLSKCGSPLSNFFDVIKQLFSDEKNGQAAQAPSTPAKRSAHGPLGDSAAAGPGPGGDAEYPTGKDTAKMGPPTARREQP
Outline: as §1

CDK9-Cyclin T1 = CDK9-Cyclin T1 (Homo sapiens, UniProt P50750)
Outline: as §1

CK2 = CK2 (Homo sapiens, UniProt P68400)
Outline: as §1

CLK2 = CLK2 (Homo sapiens, UniProt P49760)
Outline: as §1

ERK1 = ERK1 (Homo sapiens, UniProt P27361)
Outline: as §1

HER4 = HER4 (Homo sapiens, UniProt Q15303)
Outline: as §1

MKK1 = MKK1 (Homo sapiens, UniProt Q02750)
Outline: as §1

MLK3 = MLK3 (Homo sapiens, UniProt Q16584)
Outline: as §1

MPSK1 = MPSK1 (Homo sapiens, UniProt O75716)
Outline: as §1

PKBb = PKBb (Homo sapiens, UniProt P31751)
Outline: as §1

PRAK = PRAK (Homo sapiens, UniProt Q8IW41)
Outline: as §1

SRPK1 = SRPK1 (Homo sapiens, UniProt Q96SB4)
Outline: as §1

STK33 = STK33 (Homo sapiens, UniProt Q9BYT3)
Outline: as §1

ULK1 = target: T2, ULK1 (Homo sapiens, UniProt O75385)
T2 sequence (O75385 1-1050): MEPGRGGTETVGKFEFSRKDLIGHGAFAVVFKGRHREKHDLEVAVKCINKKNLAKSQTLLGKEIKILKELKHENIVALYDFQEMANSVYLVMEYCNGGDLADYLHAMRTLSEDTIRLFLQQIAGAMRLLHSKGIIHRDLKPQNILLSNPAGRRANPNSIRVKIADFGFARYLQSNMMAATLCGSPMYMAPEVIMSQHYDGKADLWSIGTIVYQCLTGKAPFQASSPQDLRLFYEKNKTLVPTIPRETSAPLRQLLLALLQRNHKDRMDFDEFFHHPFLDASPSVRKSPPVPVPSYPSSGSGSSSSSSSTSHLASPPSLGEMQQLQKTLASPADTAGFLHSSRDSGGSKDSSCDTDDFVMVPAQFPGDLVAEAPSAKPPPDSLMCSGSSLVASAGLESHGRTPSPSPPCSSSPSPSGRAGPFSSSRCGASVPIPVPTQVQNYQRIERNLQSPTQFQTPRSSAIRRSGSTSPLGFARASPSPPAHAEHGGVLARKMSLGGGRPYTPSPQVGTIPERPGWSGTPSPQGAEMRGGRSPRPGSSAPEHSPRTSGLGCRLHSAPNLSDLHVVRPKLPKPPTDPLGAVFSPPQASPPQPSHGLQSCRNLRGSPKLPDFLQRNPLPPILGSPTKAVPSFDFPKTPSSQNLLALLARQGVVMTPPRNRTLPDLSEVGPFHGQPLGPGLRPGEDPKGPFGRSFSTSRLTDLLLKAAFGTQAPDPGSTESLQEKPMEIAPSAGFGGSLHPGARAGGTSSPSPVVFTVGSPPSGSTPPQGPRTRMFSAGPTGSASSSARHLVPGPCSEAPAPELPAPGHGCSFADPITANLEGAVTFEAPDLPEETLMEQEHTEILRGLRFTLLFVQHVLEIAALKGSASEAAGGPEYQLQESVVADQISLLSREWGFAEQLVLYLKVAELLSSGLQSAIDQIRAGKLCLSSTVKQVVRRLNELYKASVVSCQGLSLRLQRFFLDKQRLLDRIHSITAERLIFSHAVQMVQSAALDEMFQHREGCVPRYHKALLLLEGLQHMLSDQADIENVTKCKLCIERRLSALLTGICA
Outline: as §1

p38a MAPK = p38a MAPK (Homo sapiens, UniProt Q16539)
Outline: as §1

Sequence of ASK1 (Q99683 whole entry): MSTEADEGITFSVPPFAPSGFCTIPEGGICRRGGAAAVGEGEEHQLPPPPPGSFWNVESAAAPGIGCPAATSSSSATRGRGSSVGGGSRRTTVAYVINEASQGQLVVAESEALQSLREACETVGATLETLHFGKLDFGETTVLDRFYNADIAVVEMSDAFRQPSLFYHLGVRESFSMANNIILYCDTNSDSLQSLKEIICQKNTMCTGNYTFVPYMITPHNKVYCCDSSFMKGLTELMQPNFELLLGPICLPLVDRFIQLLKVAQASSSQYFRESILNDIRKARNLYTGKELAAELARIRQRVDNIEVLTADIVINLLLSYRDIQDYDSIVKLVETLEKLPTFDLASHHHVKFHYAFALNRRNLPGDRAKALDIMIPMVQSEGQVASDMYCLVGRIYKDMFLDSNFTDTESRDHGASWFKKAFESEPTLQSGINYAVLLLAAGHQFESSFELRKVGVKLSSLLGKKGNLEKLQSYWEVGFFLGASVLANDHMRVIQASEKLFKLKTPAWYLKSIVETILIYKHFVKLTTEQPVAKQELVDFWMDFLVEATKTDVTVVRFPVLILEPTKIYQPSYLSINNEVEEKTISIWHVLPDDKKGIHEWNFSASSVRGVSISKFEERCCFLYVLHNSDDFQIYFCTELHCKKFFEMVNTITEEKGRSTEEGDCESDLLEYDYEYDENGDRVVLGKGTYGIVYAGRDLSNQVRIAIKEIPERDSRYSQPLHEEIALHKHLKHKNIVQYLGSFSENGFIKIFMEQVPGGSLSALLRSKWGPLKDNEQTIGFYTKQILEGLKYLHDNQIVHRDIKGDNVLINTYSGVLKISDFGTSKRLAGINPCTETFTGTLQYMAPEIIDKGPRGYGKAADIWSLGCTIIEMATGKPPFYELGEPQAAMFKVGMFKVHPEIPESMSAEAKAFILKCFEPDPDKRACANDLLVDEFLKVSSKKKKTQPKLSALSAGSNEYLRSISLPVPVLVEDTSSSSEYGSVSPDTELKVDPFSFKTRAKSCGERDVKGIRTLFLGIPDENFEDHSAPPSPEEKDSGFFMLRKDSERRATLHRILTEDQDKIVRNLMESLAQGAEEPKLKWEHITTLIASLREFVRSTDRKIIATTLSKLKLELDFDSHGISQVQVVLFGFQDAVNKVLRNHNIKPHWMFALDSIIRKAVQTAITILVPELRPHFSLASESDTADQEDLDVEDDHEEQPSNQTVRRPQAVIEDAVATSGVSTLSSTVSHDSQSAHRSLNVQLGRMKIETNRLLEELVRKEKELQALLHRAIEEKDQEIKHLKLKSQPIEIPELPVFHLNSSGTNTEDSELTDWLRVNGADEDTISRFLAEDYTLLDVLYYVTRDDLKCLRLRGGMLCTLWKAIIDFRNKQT
Sequence of ERK1 (P27361 whole entry): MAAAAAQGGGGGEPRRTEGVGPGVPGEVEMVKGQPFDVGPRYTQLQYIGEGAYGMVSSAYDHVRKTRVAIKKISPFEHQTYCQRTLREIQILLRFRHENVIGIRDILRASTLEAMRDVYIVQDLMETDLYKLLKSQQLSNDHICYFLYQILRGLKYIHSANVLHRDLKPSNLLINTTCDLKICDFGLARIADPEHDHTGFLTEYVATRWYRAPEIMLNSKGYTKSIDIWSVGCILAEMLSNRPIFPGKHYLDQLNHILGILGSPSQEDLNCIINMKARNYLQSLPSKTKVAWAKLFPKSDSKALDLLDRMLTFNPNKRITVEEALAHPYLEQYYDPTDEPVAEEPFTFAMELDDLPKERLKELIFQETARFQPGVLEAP
Sequence of STK33 (Q9BYT3 whole entry): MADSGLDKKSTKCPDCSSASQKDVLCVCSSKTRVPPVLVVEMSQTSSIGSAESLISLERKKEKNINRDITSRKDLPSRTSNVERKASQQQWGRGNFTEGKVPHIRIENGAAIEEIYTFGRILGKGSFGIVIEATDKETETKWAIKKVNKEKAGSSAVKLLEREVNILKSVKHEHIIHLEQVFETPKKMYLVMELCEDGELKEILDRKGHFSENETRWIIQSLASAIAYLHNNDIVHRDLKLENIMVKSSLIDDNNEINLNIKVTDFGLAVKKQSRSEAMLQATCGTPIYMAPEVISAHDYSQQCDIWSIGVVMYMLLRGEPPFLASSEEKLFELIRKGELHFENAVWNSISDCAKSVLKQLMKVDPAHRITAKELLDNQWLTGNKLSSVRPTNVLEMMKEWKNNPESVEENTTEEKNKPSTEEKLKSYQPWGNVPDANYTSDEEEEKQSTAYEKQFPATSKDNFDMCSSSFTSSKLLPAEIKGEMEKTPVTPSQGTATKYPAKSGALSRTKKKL
Sequence of MLK3 (Q16584 whole entry): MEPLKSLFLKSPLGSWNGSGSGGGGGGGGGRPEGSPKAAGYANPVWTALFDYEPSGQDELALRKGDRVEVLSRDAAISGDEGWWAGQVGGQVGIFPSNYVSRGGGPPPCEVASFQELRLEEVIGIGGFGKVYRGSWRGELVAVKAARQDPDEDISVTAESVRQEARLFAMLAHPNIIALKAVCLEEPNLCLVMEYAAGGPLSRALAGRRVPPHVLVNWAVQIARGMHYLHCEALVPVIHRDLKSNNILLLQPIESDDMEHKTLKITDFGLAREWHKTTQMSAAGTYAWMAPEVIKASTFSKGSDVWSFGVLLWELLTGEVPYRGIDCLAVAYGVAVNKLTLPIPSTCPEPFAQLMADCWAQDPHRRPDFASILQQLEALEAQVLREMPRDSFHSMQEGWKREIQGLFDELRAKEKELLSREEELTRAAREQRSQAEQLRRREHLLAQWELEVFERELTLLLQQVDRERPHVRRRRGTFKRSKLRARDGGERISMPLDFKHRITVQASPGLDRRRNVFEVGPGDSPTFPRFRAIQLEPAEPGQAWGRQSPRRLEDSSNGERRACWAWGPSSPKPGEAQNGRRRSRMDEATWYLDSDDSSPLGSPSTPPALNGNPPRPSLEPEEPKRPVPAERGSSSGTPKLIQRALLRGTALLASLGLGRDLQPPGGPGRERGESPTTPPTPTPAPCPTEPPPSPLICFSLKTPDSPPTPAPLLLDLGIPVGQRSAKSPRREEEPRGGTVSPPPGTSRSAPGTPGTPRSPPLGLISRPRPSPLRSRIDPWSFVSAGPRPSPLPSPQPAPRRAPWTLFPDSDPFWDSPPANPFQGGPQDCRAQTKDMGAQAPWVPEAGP
Sequence of HER4 (Q15303 26-1308): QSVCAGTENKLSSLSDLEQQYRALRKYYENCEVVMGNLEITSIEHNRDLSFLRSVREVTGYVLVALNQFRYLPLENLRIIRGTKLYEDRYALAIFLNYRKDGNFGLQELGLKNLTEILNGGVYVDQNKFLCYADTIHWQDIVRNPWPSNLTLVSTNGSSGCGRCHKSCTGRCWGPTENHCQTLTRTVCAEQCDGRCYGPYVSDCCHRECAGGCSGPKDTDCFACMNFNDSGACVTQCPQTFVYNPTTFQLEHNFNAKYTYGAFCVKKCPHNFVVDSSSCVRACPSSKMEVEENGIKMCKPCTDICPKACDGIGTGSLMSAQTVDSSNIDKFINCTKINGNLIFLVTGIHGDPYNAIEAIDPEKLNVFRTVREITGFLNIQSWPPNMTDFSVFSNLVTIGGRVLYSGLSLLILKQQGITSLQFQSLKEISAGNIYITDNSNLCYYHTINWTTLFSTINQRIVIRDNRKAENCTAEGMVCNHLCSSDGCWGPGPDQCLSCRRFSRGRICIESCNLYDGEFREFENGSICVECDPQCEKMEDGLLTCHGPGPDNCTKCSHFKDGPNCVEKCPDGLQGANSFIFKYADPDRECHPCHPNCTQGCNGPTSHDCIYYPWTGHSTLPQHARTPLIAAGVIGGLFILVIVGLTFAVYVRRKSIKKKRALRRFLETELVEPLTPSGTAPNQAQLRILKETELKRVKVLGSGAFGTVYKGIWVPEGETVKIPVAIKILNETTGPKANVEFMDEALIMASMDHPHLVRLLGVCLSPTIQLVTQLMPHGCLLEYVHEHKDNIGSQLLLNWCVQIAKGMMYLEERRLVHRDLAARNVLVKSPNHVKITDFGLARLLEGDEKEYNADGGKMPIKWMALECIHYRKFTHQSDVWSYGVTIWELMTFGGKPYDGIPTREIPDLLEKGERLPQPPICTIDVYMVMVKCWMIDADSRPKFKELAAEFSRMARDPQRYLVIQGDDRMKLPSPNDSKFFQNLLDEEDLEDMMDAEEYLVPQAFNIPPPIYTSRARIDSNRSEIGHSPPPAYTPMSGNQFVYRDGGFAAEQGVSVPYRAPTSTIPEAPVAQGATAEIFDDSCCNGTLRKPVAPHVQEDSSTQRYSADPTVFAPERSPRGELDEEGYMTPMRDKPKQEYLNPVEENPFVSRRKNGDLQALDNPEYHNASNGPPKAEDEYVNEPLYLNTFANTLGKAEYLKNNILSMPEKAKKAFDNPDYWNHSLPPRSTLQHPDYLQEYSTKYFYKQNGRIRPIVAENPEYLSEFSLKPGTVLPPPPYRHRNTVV
Sequence of MPSK1 (O75716 whole entry): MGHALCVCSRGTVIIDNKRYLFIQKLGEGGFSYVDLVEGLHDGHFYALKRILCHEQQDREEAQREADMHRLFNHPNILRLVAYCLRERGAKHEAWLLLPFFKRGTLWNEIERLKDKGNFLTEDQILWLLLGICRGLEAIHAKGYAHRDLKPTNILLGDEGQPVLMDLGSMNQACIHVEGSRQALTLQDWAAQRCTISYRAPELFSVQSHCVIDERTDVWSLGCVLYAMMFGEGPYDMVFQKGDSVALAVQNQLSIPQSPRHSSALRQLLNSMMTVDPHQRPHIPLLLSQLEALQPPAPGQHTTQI
Sequence of p38a MAPK (Q16539 whole entry): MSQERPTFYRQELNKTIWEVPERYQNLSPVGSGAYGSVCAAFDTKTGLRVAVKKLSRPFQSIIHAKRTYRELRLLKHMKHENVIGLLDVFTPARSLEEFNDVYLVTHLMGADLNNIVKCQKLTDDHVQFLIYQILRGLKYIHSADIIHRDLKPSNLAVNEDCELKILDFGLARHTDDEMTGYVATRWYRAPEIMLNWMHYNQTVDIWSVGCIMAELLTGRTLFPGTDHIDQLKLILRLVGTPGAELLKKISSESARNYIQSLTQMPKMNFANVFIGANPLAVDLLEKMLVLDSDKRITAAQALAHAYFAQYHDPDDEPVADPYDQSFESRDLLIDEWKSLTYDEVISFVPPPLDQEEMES

| SMILES | remaining activity at 0.1 µM (ASK1) | remaining activity at 0.1 µM (Aurora A) | remaining activity at 0.1 µM (BRSK2) | remaining activity at 0.1 µM (CDK9-Cyclin T1) | remaining activity at 0.1 µM (CK2) | remaining activity at 0.1 µM (CLK2) | remaining activity at 0.1 µM (ERK1) | remaining activity at 0.1 µM (HER4) | remaining activity at 0.1 µM (MKK1) | remaining activity at 0.1 µM (MLK3) | remaining activity at 0.1 µM (MPSK1) | remaining activity at 0.1 µM (PKBb) | remaining activity at 0.1 µM (PRAK) | remaining activity at 0.1 µM (SRPK1) | remaining activity at 0.1 µM (STK33) | inhibition at 0.1 µM (ULK1) | remaining activity at 0.1 µM (ULK1) | remaining activity at 0.1 µM (p38a MAPK) | remaining activity at 1 µM (BRSK2; 1 μM, cross-referenced with screen data of ref 37, read-out: activity remaining after treatment) |
| --- | --- | --- | --- | --- | --- | --- | --- | --- | --- | --- | --- | --- | --- | --- | --- | --- | --- | --- | --- |
| CC1=C(C#N)C(c2ccc3c(c2)c(NC(=O)c2ccccc2C)nn3C)C(C#N)=C(C)N1 [BAY-974, N-[5-(3,5-dicyano-2,6-dimethyl-1,4-dihydropyridin-4-yl)-1-methylindazol-3-yl]-2-methylbenzamide] | 83% | 79% | 112% | 114% | 79% | 93% | 103% | 93% | 100% | 90% | 105% | 99% | 107% | 97% | 82% | 55 to 90% | ≤ 50% | 108% |  |
| CCc1ccccc1C(=O)Nc1n[nH]c2c(C)c(F)c(C3C(C#N)=C(C)N(C)C(C)=C3C#N)cc12 [BAY-3827, N-[5-(3,5-dicyano-1,2,6-trimethyl-4H-pyridin-4-yl)-6-fluoro-7-methyl-1H-indazol-3-yl]-2-ethylbenzamide] | 95% | 90% | 82% | 97% | 85% | 87% | 105% | 135% | 100% | 85% | 135% | 93% | 101% | 111% | 94% |  | 88% | 97% | ≤ 50% |
